{
  "source": "patent US20250101338A1",
  "about": "“BIOMASS DERIVED SURFACE-ACTIVE COMPOSITIONS AND PRODUCTS” (Cambridge Glycoscience Ltd, priority 2021, published 2025)",
  "assay": "Flash foam generation test (Example 70)",
  "type": "physicochemical",
  "conditions": "20 mg in 4 mL deionized water (10 wt % [sic]), 2 mL shaken 30 s in 15 mL tube, duplicate average",
  "description": "20 mg of each surface-active composition for testing was dissolved in deionized water (4 mL) to give a 10 wt % solution, 2 mL was added to a 15 mL FALCON tube. Each falcon tube was secured in a holder before being vigorously shook for 30 seconds. The initial foam height and structure was noted. The foam height was then noted at 5 min, 10 min, 15 min, 30 min, 45 min, 1 hr and 2 hr after the initial measurement. The experiment was repeated in duplicate. Averaged results are depicted in table 5 and FIG. 11.",
  "data": [
    {"compound": "CCCCCCCCCCN(C(C)=O)C1OC[C@@H](O)[C@H](O)[C@H]1O", "note": "(stereo partly drawn) [Example 11 composition, N-decyl N-acetyl xylosylamine]", "values": [
      {"measurement": "Volume of foam after given time", "setting": "0 min", "value": 8.3, "unit": "cm^3"},
      {"measurement": "Volume of foam after given time", "setting": "5 min", "value": 4.8, "unit": "cm^3"},
      {"measurement": "Volume of foam after given time", "setting": "15 min", "value": 2.5, "unit": "cm^3"},
      {"measurement": "Volume of foam after given time", "setting": "30 min", "value": 2.3, "unit": "cm^3"},
      {"measurement": "Volume of foam after given time", "setting": "1 h", "value": 2.0, "unit": "cm^3"},
      {"measurement": "Volume of foam after given time", "setting": "2 h", "value": 2.0, "unit": "cm^3"}
    ]}
  ]
}
